Experimental data from patent publication US12122761B2, “2-azaspiro[3.4]octane derivatives as M4 agonists” (NOVARTIS AG, priority 2019, dated 2024).

Key:
[1] = biological target: T1, Cloned human M1 receptor (CHRM1) stably expressed in HEK293 cells (Homo sapiens, UniProt P11229); assay: CHRM1 Ca++ Flux Assay (agonist mode, FDSS 7000EX); format: cell-based; conditions: for M1 FDSS PA: Percent Activity; for EC50: geometric mean if tested more than once
T1 construct: expressed in transfected cells; host or cells: HEK293
T1 sequence (P11229 1-460): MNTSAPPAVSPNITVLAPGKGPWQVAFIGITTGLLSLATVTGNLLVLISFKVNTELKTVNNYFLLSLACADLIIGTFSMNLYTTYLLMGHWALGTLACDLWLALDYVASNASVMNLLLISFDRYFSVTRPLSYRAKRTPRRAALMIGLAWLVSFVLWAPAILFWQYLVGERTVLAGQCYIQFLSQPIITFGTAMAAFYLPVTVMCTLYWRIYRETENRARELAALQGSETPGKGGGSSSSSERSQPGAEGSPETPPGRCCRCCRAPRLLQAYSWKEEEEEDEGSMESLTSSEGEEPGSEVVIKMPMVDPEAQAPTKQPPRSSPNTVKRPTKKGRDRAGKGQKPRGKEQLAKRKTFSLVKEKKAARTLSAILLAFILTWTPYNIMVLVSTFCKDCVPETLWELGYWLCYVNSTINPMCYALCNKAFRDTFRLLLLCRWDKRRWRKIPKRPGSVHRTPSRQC
Method in brief: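 Compounds tested as agonists at 11 concentrations in triplicate, with calcium traces captured over 3 minutes. Cells were HEK293 with stable human CHRM1 expression, plated overnight at 25K/well and loaded with calcium dye. Responses normalized to carbachol EC100 and fitted by four-parameter nonlinear regression.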

[2] = biological target: T2, human cloned CHRM4 receptor (M4_CHO cells) (Homo sapiens, UniProt P08173); assay: CHRM4 Ca++ Flux Assay (agonist mode, FDSS 7000EX); format: cell-based; conditions: for M4 FDSS PA: Percent Activity; for EC50: geometric mean if tested more than once, read-out: M4 FDSS EC50
T2 construct: expressed in transfected cells; host or cells: CHO-K1
T2 sequence (P08173 1-479): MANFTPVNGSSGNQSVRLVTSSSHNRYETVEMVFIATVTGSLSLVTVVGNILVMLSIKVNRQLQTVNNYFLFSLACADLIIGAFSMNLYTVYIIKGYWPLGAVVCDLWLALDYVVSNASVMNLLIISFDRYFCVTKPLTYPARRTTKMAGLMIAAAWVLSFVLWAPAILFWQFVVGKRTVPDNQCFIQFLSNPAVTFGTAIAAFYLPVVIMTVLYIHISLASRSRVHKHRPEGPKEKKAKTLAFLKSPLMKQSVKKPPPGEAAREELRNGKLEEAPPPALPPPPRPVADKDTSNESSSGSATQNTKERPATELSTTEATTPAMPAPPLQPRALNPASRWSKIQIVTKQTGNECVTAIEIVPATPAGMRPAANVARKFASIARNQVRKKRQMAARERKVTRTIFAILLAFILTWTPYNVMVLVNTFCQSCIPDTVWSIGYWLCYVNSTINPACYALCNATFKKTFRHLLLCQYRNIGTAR
Method in brief: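 Agonist-mode response was expressed as percent of the Carbachol EC100 and fitted with four-parameter nonlinear regression over an 11-point triplicate dose series. Intracellular Ca++ was tracked for 3 min by fluorescent dye in CHO-K1 cells stably expressing human CHRM4. Cells were preincubated 60 min with 20 μM ATP in buffer containing 2.5 mM probenecid.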

SMILES	M1 FDSS PA [1] [%]	EC50 [1] [nM]	M4 FDSS PA [2] [%]	EC50 [2] [nM]
Fc1ccc(C2CCOCC2)c(C2CCN([C@@H]3CCC4(C3)CN(c3cncnc3)C4)CC2)c1 (single isomer, unassigned) [Example 10D, (R)-6-(4-(5-fluoro-2-(tetrahydro-2H-pyran-4-yl)phenyl)piperidin-1-yl)-2-(pyrimidin-5-yl)-2-azaspiro[3.4]octane or (S)-6-(4-(5-fluoro-2-(tetrahydro-2H-pyran-4-yl)phenyl)piperidin-1-yl)-2-(pyrimidin-5-yl)-2-azaspiro[3.4]octane]	55	1410	50	25
Fc1ccc(OC2CC3(COC3)C2)c(C2CCN([C@@H]3CCC4(C3)CN(c3cncnc3)C4)CC2)c1 (single isomer, unassigned) [Example 10E, (R)-6-(4-(2-((2-oxaspiro[3.3]heptan-6-yl)oxy)-5-fluorophenyl)piperidin-1-yl)-2-(pyrimidin-5-yl)-2-azaspiro[3.4]octane or (S)-6-(4-(2-((2-oxaspiro[3.3]heptan-6-yl)oxy)-5-fluorophenyl)piperidin-1-yl)-2-(pyrimidin-5-yl)-2-azaspiro[3.4]octane]	4	3990	59	27
Fc1ccc(OC2CC3(COC3)C2)c(C2CCN([C@@H]3CCC4(C3)CN(c3cncnc3)C4)CC2)c1 (single isomer, unassigned) [Example 10F, (R)-6-(4-(2-((2-oxaspiro[3.3]heptan-6-yl)oxy)-5-fluorophenyl)piperidin-1-yl)-2-(pyrimidin-5-yl)-2-azaspiro[3.4]octane or (S)-6-(4-(2-((2-oxaspiro[3.3]heptan-6-yl)oxy)-5-fluorophenyl)piperidin-1-yl)-2-(pyrimidin-5-yl)-2-azaspiro[3.4]octane]	0	> 25000	71	4.7
Fc1ccc(OC2CCOCC2)c(C2CCN([C@@H]3CCC4(C3)CN(c3cncnc3)C4)CC2)c1 (single isomer, unassigned) [Example 10G, (R)-6-(4-(5-fluoro-2-((tetrahydro-2H-pyran-4-yl)oxy)phenyl)piperidin-1-yl)-2-(pyrimidin-5-yl)-2-azaspiro[3.4]octane or (S)-6-(4-(5-fluoro-2-((tetrahydro-2H-pyran-4-yl)oxy)phenyl)piperidin-1-yl)-2-(pyrimidin-5-yl)-2-azaspiro[3.4]octane]	64	63	56	5
Fc1ccc(OC2CCOCC2)c(C2CCN([C@@H]3CCC4(C3)CN(c3cncnc3)C4)CC2)c1 (single isomer, unassigned) [Example 10H, (R)-6-(4-(5-fluoro-2-((tetrahydro-2H-pyran-4-yl)oxy)phenyl)piperidin-1-yl)-2-(pyrimidin-5-yl)-2-azaspiro[3.4]octane or (S)-6-(4-(5-fluoro-2-((tetrahydro-2H-pyran-4-yl)oxy)phenyl)piperidin-1-yl)-2-(pyrimidin-5-yl)-2-azaspiro[3.4]octane]	36	1390	51	19
COc1ccccc1C1CCN([C@H]2CCC3(C2)CN(c2ncco2)C3)CC1 (single isomer, unassigned) [Example 10J, (S)-2-(6-(4-(2-methoxyphenyl)piperidin-1-yl)-2-azaspiro[3.4]octan-2-yl)oxazole or (R)-2-(6-(4-(2-methoxyphenyl)piperidin-1-yl)-2-azaspiro[3.4]octan-2-yl)oxazole]	66	20	67	1
FC(F)(F)Oc1ccccc1C1CCN([C@@H]2CCC3(C2)CN(c2ncco2)C3)CC1 (single isomer, unassigned) [Example 10K, (R)-2-(6-(4-(2-(trifluoromethoxy)phenyl)piperidin-1-yl)-2-azaspiro[3.4]octan-2-yl)oxazole or (S)-2-(6-(4-(2-(trifluoromethoxy)phenyl)piperidin-1-yl)-2-azaspiro[3.4]octan-2-yl)oxazole]	65	94	65	7
FC(F)(F)Oc1ccccc1C1CCN([C@@H]2CCC3(C2)CN(c2nncs2)C3)CC1 (single isomer, unassigned) [Example 10M, (R)-2-(6-(4-(2-(trifluoromethoxy)phenyl)piperidin-1-yl)-2-azaspiro[3.4]octan-2-yl)-1,3,4-thiadiazole or (S)-2-(6-(4-(2-(trifluoromethoxy)phenyl)piperidin-1-yl)-2-azaspiro[3.4]octan-2-yl)-1,3,4-thiadiazole]	77	49	67	11
FC(F)Oc1ccccc1C1CCN([C@@H]2CCC3(C2)CN(c2nncs2)C3)CC1 (single isomer, unassigned) [Example 10O, (R)-2-(6-(4-(2-(difluoromethoxy)phenyl)piperidin-1-yl)-2-azaspiro[3.4]octan-2-yl)-1,3,4-thiadiazole or (S)-2-(6-(4-(2-(difluoromethoxy)phenyl)piperidin-1-yl)-2-azaspiro[3.4]octan-2-yl)-1,3,4-thiadiazole]	83	44	67	1
COc1ccccc1C1CCN([C@@H]2CCC3(C2)CN(c2ncns2)C3)CC1 (single isomer, unassigned) [Example 10R, (R)-5-(6-(4-(2-methoxyphenyl)piperidin-1-yl)-2-azaspiro[3.4]octan-2-yl)-1,2,4-thiadiazole or (S)-5-(6-(4-(2-methoxyphenyl)piperidin-1-yl)-2-azaspiro[3.4]octan-2-yl)-1,2,4-thiadiazole]	0	> 25000	36	122

The remaining lines, values ahead:

M1 FDSS PA [1] [%]	EC50 [1] [nM]	M4 FDSS PA [2] [%]	EC50 [2] [nM]	SMILES
0	> 25000	17	1070	COc1ccccc1C1CCN([C@H]2CCC3(C2)CN(c2ncco2)C3)CC1 (single isomer, unassigned) [Example 10I, S)-2-(6-(4-(2-methoxyphenyl)piperidin-1-yl)-2-azaspiro[3.4]octan-2-yl)oxazole or (R)-2-(6-(4-(2-methoxyphenyl)piperidin-1-yl)-2-azaspiro[3.4]octan-2-yl)oxazole]
50	736	57	98	FC(F)(F)Oc1ccccc1C1CCN([C@@H]2CCC3(C2)CN(c2ncco2)C3)CC1 (single isomer, unassigned) [Example 10L, (R)-2-(6-(4-(2-(trifluoromethoxy)phenyl)piperidin-1-yl)-2-azaspiro[3.4]octan-2-yl)oxazole or (S)-2-(6-(4-(2-(trifluoromethoxy)phenyl)piperidin-1-yl)-2-azaspiro[3.4]octan-2-yl)oxazole]
0	> 25000	1	> 25000	FC(F)(F)Oc1ccccc1C1CCN([C@@H]2CCC3(C2)CN(c2nncs2)C3)CC1 (single isomer, unassigned) [Example 10N, (R)-2-(6-(4-(2-(trifluoromethoxy)phenyl)piperidin-1-yl)-2-azaspiro[3.4]octan-2-yl)-1,3,4-thiadiazole or (S)-2-(6-(4-(2-(trifluoromethoxy)phenyl)piperidin-1-yl)-2-azaspiro[3.4]octan-2-yl)-1,3,4-thiadiazole]
66	170	71	8	COc1ccccc1C1CCN([C@@H]2CCC3(C2)CN(c2ncns2)C3)CC1 (single isomer, unassigned) [Example 10Q, (R)-5-(6-(4-(2-methoxyphenyl)piperidin-1-yl)-2-azaspiro[3.4]octan-2-yl)-1,2,4-thiadiazole or (S)-5-(6-(4-(2-methoxyphenyl)piperidin-1-yl)-2-azaspiro[3.4]octan-2-yl)-1,2,4-thiadiazole]
